Measurements from paper PMC6111440, “Cyclin-Dependent Kinase (CDK) Inhibitors: Structure–Activity Relationships and Insights into the CDK-2 Selectivity of 6-Substituted 2-Arylaminopurines” (Journal of Medicinal Chemistry, 2016).
Read-outs that look alike come from different tables or passages of the source.

Tests used:
CDK2/A [1] = molecular target: T1, CDK2/A (Homo sapiens, UniProt P24941)
Experimental: (§1) Human CDK1/B was purchased from New England Biolabs or prepared as described,[46] CDK2/A2 was prepared as described,[46] CDK4/D was provided by AstraZeneca, and CDK7/H and CDK9/T were purchased from Upstate. IC50 values for CDK1/B, CDK2/A, and CDK4/D were determined as described.[23] IC50 values for CDK7/H and CDK9/H were determined according to the supplier’s instructions (Upstate).

Human CDK1/B [2] = molecular target: T2, Human CDK1/B (Homo sapiens, UniProt P06493)
Experimental: as §1

CDK7/H [3] = molecular target: T3, CDK7/H (Homo sapiens, UniProt P50613)
Experimental: as §1

CDK9/T [4] = molecular target: T4, CDK9/T (Homo sapiens, UniProt P50750)
Experimental: as §1

CDK2/A [5] = molecular target: T1, CDK2/A; assay: biochemical
Experimental: as §1

CDK4/D = CDK4/D (Homo sapiens, UniProt P11802); assay: biochemical; conditions: for inhibition at 100 µM: read-out: CDK4/D % inhibition at 100 μM; for inhibition at 10 µM: read-out: CDK4 Inhibition at 10 μM (%)
Experimental: as §1

CDK7/H [6] = molecular target: T3, CDK7/H; assay: biochemical; conditions: for inhibition at 10 µM: read-out: CDK7 Inhibition at 10 μM (%)
Experimental: as §1

[7] = tested on: Rb-proficient human tumor cell lines (A375, Calu-6, MDA-MB-231, SJSA1, SKUT-1B); assay: 5-day growth inhibition SRB assay; conditions: for GI50: Homo sapiens, 120 h
Experimental: Dose–response curves and GI50 bar charts represent the mean ± SEM from three or four independent experiments.
The ability of selected compounds to inhibit cell growth was assessed in a panel of human cancer cell lines using an SRB assay.[45] […] At least three independent experiments were performed. Growth inhibitory GI50 values were calculated using GraphPad Prism software (GraphPad Software, Inc., San Diego, CA).

CDK5 [8] = molecular target: T5, CDK5 (Homo sapiens, UniProt Q00535); assay: biochemical; conditions: read-out: CDK5 Inhibition at 10 μM (%)
CDK9/T [9] = molecular target: T4, CDK9/T; assay: biochemical; conditions: read-out: CDK9 Inhibition at 10 μM (%)
Experimental: as §1

Human CDK1/B [10] = molecular target: T2, Human CDK1/B; assay: biochemical; conditions: read-out: CDK1 Inhibition at 10 μM (%)
Experimental: as §1

CDK5 [11] = molecular target: T5, CDK5; conditions: read-out: CDK5 Inhibitory Activity IC50; Table 3
[12] = read-out: CDK2 Inhibition IC50, Table 1, ATP 12.5 μM
[13] = read-out: CDK1/B IC50, Table 2, ATP 12.5 μM
[14] = read-out: CDK7/H IC50, Table 2, ATP 100 μM
[15] = read-out: CDK9/T IC50, Table 2, ATP 100 μM
[16] = read-out: CDK2 Inhibitory Activity IC50, Table 3
[17] = read-out: CDK1 Inhibitory Activity IC50, Table 3
[18] = read-out: CDK7 Inhibitory Activity IC50, Table 3
[19] = read-out: CDK9 Inhibitory Activity IC50, Table 3
[20] = read-out: CDK2 Inhibition at 10 μM (%)

CDK4/D, sequence (P11802 whole entry): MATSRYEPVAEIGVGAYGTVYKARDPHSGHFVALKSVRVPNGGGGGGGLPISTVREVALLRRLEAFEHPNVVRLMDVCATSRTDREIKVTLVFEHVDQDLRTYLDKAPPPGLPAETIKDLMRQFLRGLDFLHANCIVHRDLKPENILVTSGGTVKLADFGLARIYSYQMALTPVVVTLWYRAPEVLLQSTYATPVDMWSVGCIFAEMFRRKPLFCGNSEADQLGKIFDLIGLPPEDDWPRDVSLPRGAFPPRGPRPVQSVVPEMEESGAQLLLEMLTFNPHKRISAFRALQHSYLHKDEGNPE
CDK4/D, sequence (P24385 whole entry partner): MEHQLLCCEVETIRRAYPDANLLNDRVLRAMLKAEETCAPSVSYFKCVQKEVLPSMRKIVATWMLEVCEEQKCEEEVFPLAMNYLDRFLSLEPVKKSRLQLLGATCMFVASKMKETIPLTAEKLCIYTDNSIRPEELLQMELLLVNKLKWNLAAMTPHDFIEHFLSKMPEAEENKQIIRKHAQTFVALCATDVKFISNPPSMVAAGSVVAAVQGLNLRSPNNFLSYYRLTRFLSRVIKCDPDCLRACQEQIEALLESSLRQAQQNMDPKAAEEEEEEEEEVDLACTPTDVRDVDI
T2 sequence (P06493 whole entry): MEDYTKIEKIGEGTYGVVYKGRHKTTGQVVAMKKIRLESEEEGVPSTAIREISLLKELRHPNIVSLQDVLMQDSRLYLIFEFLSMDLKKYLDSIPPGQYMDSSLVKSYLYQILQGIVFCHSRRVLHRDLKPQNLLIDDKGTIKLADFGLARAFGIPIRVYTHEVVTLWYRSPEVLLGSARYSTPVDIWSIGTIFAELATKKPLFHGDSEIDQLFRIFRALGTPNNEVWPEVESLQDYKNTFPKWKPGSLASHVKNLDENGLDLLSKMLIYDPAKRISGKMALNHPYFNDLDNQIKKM
T2 sequence (P14635 whole entry partner): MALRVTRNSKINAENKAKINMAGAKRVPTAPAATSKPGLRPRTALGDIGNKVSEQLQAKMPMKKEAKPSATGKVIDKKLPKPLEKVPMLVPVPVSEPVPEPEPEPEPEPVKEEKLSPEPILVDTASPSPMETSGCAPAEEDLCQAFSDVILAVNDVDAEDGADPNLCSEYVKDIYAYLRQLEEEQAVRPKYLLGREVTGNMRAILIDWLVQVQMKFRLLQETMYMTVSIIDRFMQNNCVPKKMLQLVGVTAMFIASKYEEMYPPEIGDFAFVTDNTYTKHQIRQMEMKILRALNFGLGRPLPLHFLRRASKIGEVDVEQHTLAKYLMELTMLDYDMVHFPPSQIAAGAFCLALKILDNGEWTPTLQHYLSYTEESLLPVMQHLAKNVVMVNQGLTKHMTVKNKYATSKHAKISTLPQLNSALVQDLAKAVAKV
T4 sequence (P50750 whole entry): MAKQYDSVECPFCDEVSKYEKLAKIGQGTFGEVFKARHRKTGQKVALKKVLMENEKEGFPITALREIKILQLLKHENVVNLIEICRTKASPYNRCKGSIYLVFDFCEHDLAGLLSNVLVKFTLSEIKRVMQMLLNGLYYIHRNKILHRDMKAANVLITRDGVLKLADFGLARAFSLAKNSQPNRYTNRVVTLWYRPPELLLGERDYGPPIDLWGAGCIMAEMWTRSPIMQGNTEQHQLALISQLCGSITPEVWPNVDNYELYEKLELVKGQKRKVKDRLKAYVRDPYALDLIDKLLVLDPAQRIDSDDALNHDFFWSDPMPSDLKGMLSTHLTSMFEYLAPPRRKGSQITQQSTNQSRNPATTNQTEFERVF
T4 sequence (O60563 whole entry partner): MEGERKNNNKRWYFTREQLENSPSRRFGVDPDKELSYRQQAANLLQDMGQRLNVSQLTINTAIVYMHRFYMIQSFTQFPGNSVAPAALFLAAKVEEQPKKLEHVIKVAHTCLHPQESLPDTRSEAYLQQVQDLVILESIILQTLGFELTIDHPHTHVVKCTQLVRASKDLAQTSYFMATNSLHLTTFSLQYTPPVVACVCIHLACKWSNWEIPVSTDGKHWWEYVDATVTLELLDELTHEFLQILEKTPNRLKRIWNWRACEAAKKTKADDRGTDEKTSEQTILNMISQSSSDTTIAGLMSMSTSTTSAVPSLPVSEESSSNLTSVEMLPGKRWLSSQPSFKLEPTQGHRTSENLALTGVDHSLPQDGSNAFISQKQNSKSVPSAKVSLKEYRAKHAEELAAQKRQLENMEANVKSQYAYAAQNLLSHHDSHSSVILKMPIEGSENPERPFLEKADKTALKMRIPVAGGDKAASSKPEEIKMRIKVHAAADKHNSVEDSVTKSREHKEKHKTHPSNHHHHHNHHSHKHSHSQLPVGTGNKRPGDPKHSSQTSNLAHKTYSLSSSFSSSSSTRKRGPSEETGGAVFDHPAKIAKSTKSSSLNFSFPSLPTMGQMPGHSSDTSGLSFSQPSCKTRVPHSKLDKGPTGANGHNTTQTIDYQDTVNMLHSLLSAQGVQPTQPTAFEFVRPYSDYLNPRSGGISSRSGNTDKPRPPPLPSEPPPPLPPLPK
T5 sequence (Q00535 whole entry, species assumed): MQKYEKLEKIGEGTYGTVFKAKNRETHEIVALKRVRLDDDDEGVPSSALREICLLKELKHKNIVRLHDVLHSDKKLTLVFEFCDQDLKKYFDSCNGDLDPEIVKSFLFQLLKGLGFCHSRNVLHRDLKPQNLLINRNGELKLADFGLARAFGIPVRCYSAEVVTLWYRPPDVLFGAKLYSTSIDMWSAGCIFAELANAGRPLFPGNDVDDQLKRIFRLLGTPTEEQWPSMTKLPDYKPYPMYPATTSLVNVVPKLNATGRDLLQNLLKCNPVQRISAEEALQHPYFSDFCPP
T5 sequence (Q15078 99-307 partner limits assumed, species assumed): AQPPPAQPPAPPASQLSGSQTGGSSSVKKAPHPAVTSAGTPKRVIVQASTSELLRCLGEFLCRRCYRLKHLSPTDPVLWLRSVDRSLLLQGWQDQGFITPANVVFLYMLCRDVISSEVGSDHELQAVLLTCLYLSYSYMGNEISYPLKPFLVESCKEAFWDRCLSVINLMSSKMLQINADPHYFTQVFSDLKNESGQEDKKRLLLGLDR
T3 sequence (P50613 whole entry): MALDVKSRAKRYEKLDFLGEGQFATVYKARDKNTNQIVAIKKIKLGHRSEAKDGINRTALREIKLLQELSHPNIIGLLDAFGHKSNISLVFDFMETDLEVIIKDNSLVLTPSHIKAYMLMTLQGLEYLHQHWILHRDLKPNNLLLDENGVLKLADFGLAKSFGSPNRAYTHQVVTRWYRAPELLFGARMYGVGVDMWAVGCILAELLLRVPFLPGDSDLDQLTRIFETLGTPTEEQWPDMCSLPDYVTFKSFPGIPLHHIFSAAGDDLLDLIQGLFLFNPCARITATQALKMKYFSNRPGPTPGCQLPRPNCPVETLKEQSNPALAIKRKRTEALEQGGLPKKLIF
T3 sequence (P51946 whole entry partner): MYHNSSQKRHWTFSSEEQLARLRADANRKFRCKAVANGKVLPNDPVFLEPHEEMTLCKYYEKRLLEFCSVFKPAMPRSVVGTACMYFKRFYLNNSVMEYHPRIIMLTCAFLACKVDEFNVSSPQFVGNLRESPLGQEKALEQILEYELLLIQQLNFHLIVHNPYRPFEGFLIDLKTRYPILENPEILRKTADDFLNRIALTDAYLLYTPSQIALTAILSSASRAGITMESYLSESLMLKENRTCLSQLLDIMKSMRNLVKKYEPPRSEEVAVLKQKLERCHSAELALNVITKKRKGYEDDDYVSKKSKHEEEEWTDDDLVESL
T3 sequence (P51948 whole entry partner): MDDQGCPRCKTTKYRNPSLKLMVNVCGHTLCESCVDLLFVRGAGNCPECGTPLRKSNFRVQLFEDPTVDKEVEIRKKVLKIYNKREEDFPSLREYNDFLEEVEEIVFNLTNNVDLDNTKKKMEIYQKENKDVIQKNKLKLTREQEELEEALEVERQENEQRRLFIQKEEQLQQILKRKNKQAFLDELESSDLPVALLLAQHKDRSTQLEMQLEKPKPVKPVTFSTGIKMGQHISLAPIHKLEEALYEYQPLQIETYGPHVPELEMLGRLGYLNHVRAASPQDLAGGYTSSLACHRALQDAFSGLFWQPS

SMILES: CCC(C)Oc1nc(Nc2ccc(S(N)(=O)=O)cc2)nc2[nH]cnc12 (racemic) [Compound 34]
- IC50 (CDK2/A [1]; read-out: CDK2/A IC50, Table 2, ATP 12.5 μM): 0.0012 ± 0.0005 µM
- IC50 (CDK2/A [1]; [12]): 0.001 ± 0.0005 µM
- IC50 (Human CDK1/B [2]; [13]): 0.097 ± 0.04 µM
- IC50 (CDK7/H [3]; [14]): 2.8 ± 0.1 µM
- IC50 (CDK9/T [4]; [15]): 0.57 ± 0.05 µM

SMILES: Nc1nc2ncnc-2c[nH]1 [Compound 8, 2-Aminopurine, reference compound]
- inhibition at 100 µM (CDK2/A [5]; read-out: CDK2 Inhibition (%) at 100 μM): 4%

SMILES: c1ccc(Nc2ncc3nc[nH]c3n2)cc1 [Compound 12, Phenyl-(9H-purin-2-yl)amine]
- IC50 (CDK2/A [1]; [12]): 61 ± 0.1 µM

SMILES: NS(=O)(=O)c1ccc(Nc2ncc3nc[nH]c3n2)cc1 [Compound 13, 4-(9H-Purin-2-ylamino)benzenesulfonamide]
- fold less active/potent than 3 against CDK2 (CDK2/A [1]; compared with 3): ~300 fold
- IC50 (CDK2/A [1]; [12]): 1.5 ± 0.1 µM
- IC50 (Human CDK1/B [2]; [13]): 15.8 ± 1.2 µM
- IC50 (CDK7/H [3]; [14]): 75 ± 3 µM
- IC50 (CDK9/T [4]; [15]): 38 ± 11 µM
- inhibition at 100 µM (CDK4/D): 12%

SMILES: CC(C)[Si](C#Cc1nc(Nc2ccc(S(N)(=O)=O)cc2)nc2[nH]cnc12)(C(C)C)C(C)C [Compound 40, 4-(6-((Triisopropylsilyl)ethynyl)-9H-purin-2-ylamino)benzenesulfonamide]
- IC50 (CDK2/A [1]; [12]): 0.017 ± 0.001 µM

SMILES: CC#Cc1nc(Nc2ccccc2)nc2[nH]cnc12 [Compound 48, N-Phenyl-6-(prop-1-yn-1-yl)-9H-purin-2-amine]
- IC50 (CDK2/A [1]; [12]): 6.4 ± 0.4 µM

SMILES: C(#Cc1nc(Nc2ccccc2)nc2[nH]cnc12)c1ccccc1 [Compound 49, N-Phenyl-6-(phenylethynyl)-9H-purin-2-amine]
- IC50 (CDK2/A [1]; [12]): 8.9 ± 0.7 µM

SMILES: CCc1nc(Nc2ccc(S(N)(=O)=O)cc2)nc2[nH]cnc12 [Compound 52, 4-(6-Ethyl-9H-purin-2-ylamino)benzenesulfonamide]
- fold reduction of CDK2-inhibitory activity compared with 30 (CDK2/A [1]; compared with 6-ethoxypurine 30): ~10 fold
- IC50 (CDK2/A [1]; [12]): 0.22 ± 0.003 µM

SMILES: NS(=O)(=O)c1ccc(Nc2nc(C3CC3)c3nc[nH]c3n2)cc1 [Compound 55, 4-(6-Cyclopropyl-9H-purin-2-ylamino)benzenesulfonamide]
- IC50 (CDK2/A [1]; [12]): 0.019 ± 0.001 µM

SMILES: NS(=O)(=O)c1ccc(Nc2nc(-c3ccccc3)c3nc[nH]c3n2)cc1 [Compound 70, 4-(6-Phenyl-9H-purin-2-ylamino)benzenesulfonamide]
- IC50 (CDK2/A [1]; [12]): 0.024 ± 0.002 µM
- IC50 (Human CDK1/B [2]; [13]): 0.73 ± 0.003 µM
- IC50 (CDK7/H [3]; [14]): 6.8 ± 0.4 µM
- IC50 (CDK9/T [4]; [15]): 0.57 ± 0.04 µM

SMILES: COc1cccc(-c2nc(Nc3ccc(S(N)(=O)=O)cc3)nc3[nH]cnc23)c1 [Compound 71, 4-(6-(3-Methoxyphenyl)-9H-purin-2-ylamino)benzenesulfonamide]
- IC50 (CDK2/A [1]; [12]): 0.039 ± 0.013 µM

SMILES: COc1ccc(-c2nc(Nc3ccc(S(N)(=O)=O)cc3)nc3[nH]cnc23)cc1 [Compound 72, 4-(6-(4-Methoxyphenyl)-9H-purin-2-ylamino)benzenesulfonamide]
- IC50 (CDK2/A [1]; [12]): 0.052 ± 0.004 µM

SMILES: NS(=O)(=O)c1ccc(Nc2nc(-c3cccc(-c4ccccc4)c3)c3nc[nH]c3n2)cc1 [Compound 73, 4-((6-([1,1′-Biphenyl]-3-yl)-9H-purin-2-yl)amino)benzenesulfonamide]
- selectivity for CDK2 over CDK1 (CDK2/A [1]; ratio of CDK1 and CDK2 IC50): ~2000 fold
- IC50 (CDK2/A [1]; [12]): 0.044 ± 0.012 µM
- IC50 (Human CDK1/B [2]; [13]): 86 ± 4 µM
- IC50 (CDK9/T [4]; [15]): 25 ± 8 µM
- inhibition at 100 µM (CDK4/D): 26%
- inhibition at 100 µM (CDK7/H [6]; read-out: CDK7/H % inhibition at 100 μM): 28%
- effect on the growth of cells ([7]; maximal concentration tested 30 μM, 5-day growth assay, GI50 could not be determined): no or limited effects

SMILES: NS(=O)(=O)c1ccc(Nc2nc(-c3ccc4c(c3)OCO4)c3nc[nH]c3n2)cc1 [Compound 74, 4-(6-(Benzo[d][1,3]dioxol-5-yl)-9H-purin-2-ylamino)benzenesulfonamide]
- fold less potent than 70 (CDK2) (CDK2/A [1]; compared with 70): ~20 fold
- IC50 (CDK2/A [1]; [12]): 0.58 ± 0.02 µM

SMILES: NS(=O)(=O)c1ccc(Nc2nc(-c3cccc4c3oc3ccccc34)c3nc[nH]c3n2)cc1 [Compound 75, 4-(6-(4-Dibenzofuryl)-9H-purin-2-ylamino)benzenesulfonamide]
- IC50 (CDK2/A [1]; [12]): 1.4 ± 0.2 µM

SMILES: NS(=O)(=O)c1ccc(Nc2nc(-c3cccc4c3Sc3ccccc3S4)c3nc[nH]c3n2)cc1 [Compound 76]
- IC50 (CDK2/A [1]; [12]): 6.7 ± 0.5 µM

SMILES: Nc1cc(OCC2CCCCC2)c2nc[nH]c2n1 [Compound 80, 7-(Cyclohexylmethoxy)-3H-imidazo[4,5-b]pyridin-5-amine]
- IC50 (CDK2/A [1]; [16]): 28.4 ± 0.8 µM

SMILES: NS(=O)(=O)c1ccc(Nc2cc(OCC3CCCCC3)c3nc[nH]c3n2)cc1 [Compound 83, 4-((7-(Cyclohexylmethoxy)-3H-imidazo[4,5-b]pyridin-5-yl)amino) benzenesulfonamide]
- IC50 (CDK2/A [1]; [16]): 0.29 ± 0.01 µM
- IC50 (Human CDK1/B [2]; [17]): 11 ± 2 µM
- inhibition at 10 µM (CDK4/D): 23 ± 1%
- inhibition at 10 µM (CDK5 [8]): 37%
- inhibition at 10 µM (CDK7/H [6]): 37%
- inhibition at 10 µM (CDK9/T [9]): 42%

SMILES: Nc1nc(OCC2CCCCC2)c2nn[nH]c2n1 [Compound 86, 7-(Cyclohexylmethoxy)-3H-[1,2,3]triazolo[4,5-d]pyrimidin-5-amine]
- IC50 (CDK2/A [1]; [16]): 18 ± 1 µM
- inhibition at 10 µM (Human CDK1/B [10]): 21%
- inhibition at 10 µM (CDK4/D): 6.2%
- inhibition at 10 µM (CDK5 [8]): 13%
- inhibition at 10 µM (CDK7/H [6]): 13%
- inhibition at 10 µM (CDK9/T [9]): 16%

SMILES: Nc1nc(OCC2CCCCC2)c2cn[nH]c2n1 [Compound 87, 4-(Cyclohexylmethoxy)-1H-pyrazolo[3,4-d]pyrimidin-6-amine]
- IC50 (CDK2/A [1]; [16]): 16 ± 4 µM
- inhibition at 10 µM (Human CDK1/B [10]): 32%
- inhibition at 10 µM (CDK4/D): 0%
- inhibition at 10 µM (CDK5 [8]): 14%
- inhibition at 10 µM (CDK7/H [6]): 16%
- inhibition at 10 µM (CDK9/T [9]): 16%

SMILES: NS(=O)(=O)c1ccc(Nc2nc(OCC3CCCCC3)c3nn[nH]c3n2)cc1 [Compound 90, 4-((7-(Cyclohexylmethoxy)-3H-[1,2,3]triazolo[4,5-d]pyrimidin-5-yl)amino) benzenesulfonamide]
- IC50 (CDK2/A [1]; [16]): 0.002 ± 0.0001 µM
- IC50 (Human CDK1/B [2]; [17]): 0.75 ± 0.06 µM
- IC50 (CDK5 [11]): 3.3 ± 0.2 µM
- IC50 (CDK7/H [3]; [18]): 6.8 ± 0.7 µM
- IC50 (CDK9/T [4]; [19]): 0.75 ± 0.03 µM

SMILES: NS(=O)(=O)c1ccc(Nc2nc(OCC3CCCCC3)c3cn[nH]c3n2)cc1 [Compound 91, 4-((4-(Cyclohexylmethoxy)-1H-pyrazolo[3,4-d]pyrimidin-6-yl)amino)benzenesulfonamide]
- IC50 (CDK5 [11]): 5.9 ± 0.1 µM
- IC50 (CDK7/H [3]; [18]): 7 ± 0.3 µM
- IC50 (CDK9/T [4]; [19]): 4.6 ± 0.2 µM
- GI50 [7]: 1 to 22 µM

SMILES: Nc1nc(OCC2CCCCC2)c2cc[nH]c2n1 [Compound 93, 4-(Cyclohexylmethoxy)-7H-pyrrolo[2,3-d]pyrimidin-2-amine]
- inhibition at 10 µM (CDK2/A [5]; read-out: CDK2 Inhibition (%) at 10 uM): 41 ± 10%
- inhibition at 100 µM (CDK2/A [5]; read-out: CDK2 Inhibition (%), value determined at 100 μM): 41%
- inhibition at 10 µM (Human CDK1/B [10]): 11%
- inhibition at 10 µM (CDK4/D): 5.6%
- inhibition at 10 µM (CDK5 [8]): 12%
- inhibition at 10 µM (CDK7/H [6]): 5.1%
- inhibition at 10 µM (CDK9/T [9]): 0%

SMILES: NS(=O)(=O)c1ccc(Nc2nc(OCC3CCCCC3)c3cc[nH]c3n2)cc1 [Compound 98, 4-((4-(Cyclohexylmethoxy)-7H-pyrrolo[2,3-d]pyrimidin-2-yl)amino)benzenesulfonamide]
- IC50 (CDK2/A [1]; [16]): 0.026 ± 0.001 µM
- IC50 (Human CDK1/B [2]; [17]): 2.7 ± 0.2 µM
- IC50 (CDK5 [11]): 4.4 ± 0.6 µM
- IC50 (CDK7/H [3]; [18]): 4.1 ± 0.2 µM
- IC50 (CDK9/T [4]; [19]): 1 ± 0.2 µM
- GI50 [7]: 1 to 22 µM

SMILES: c1ccc(Nc2cc(OCC3CCCCC3)n3ccnc3n2)cc1 [Compound 101, 5-Cyclohexylmethoxy-7-anilinoimidazo[1,2-a]pyrimidine]
- inhibition at 10 µM (CDK2/A [5]; [20]): 10%

SMILES: NS(=O)(=O)c1ccc(Nc2cc(OCC3CCCCC3)n3ccnc3n2)cc1 [Compound 102, 5-Cyclohexylmethoxy-7-(4′-sulfamoylanilino)imidazo[1,2-a]pyrimidine]
- inhibition at 10 µM (CDK2/A [5]; [20]): 36%
